Reference: PMC11274883, “Anticancer Effect of Pt^[sequence], Pt^II5MESS, Pt^II56MESS and Their Platinum(IV)-Dihydroxy Derivatives against Triple-Negative Breast Cancer and Cisplatin-Resistant Colorectal Cancer” (Cancers, 2024)

How the values were obtained:
Format in all cases: cell-based
MDA−MB−231 3D networks = assay: 3D bioprinted culture cytotoxicity (WST-1); settings: 72 h, mean ± SEM
Excerpt: (§1) To evaluate the cytotoxic effect of platinum(II) and (IV) complexes in 3D cell culture, MDA−MB−231 or HT29 cells were used to bioprint networks or spheroids with the non-contact drop-on-demand 3D RASTRUM bioprinter (Inventia Life Science, Alexandria, NSW, Australia). The 3D cultures use two constituents: bioink and activator. Cell pellets (2 × 10^6 cells) were resuspended in an activator reagent which forms an instant gel after its addition to the bioink by the bioprinter. The 3D large plug cell model with polyethylene glycol bioinks formulated to mimic the properties of in vivo tissue were chosen as follows. Matrix Px02.31 (activator F177 and bioink F242 with RGD: Fibronectin) was used for MDA−MB−231 3D embedded networks, Px02.00 (activator F177 and bioink F119 without RGD additives, Table S1) was used for MDA−MB−231 spheroids and matrix #Px02.09 (activator F177 and bioink F236 with adhesion peptides including, RGD: Fibronectin, and GFOGER: collagen type I to recapitulate rich in vivo tissue extracellular environments) was used for HT29 spheroids (Inventia Life Science) (Table S1). Each cell line was printed at 10,000 cells/well and loaded with the bioink fluids into the selected printer cartridge. After the automated priming of all fluids into the printer nozzles, each cell line was individually printed on tissue culture plates (Nunc^TM MicroWell^TM 96-Well, Nunclon Delta-Treated, Flat-Bottom Microplate, ThermoFisher #167008), with RASTRUM creating the 3D Large Plug across the 96-well plate. Following completion of the print run, 200 μL DMEM culture medium was added to each well using multichannel pipettes. The plate was then incubated for 7 days (humidified incubator with 5% CO2 at 37 °C) for compact and homogenous spheroid formation before the cytotoxicity assay. When the spheroids developed, post-7-day incubation, media was removed and replaced with 100 µL DMEM. […] Cytotoxicity was then assessed using the WST-1 assay as previously described in Section 2.3.

HT29 spheroids = assay: 3D bioprinted spheroid cytotoxicity (WST-1); settings: 72 h, mean ± SEM
Excerpt: as §1

MDA−MB−231 spheroids = assay: 3D bioprinted spheroid cytotoxicity (WST-1); settings: 72 h, mean ± SEM
Excerpt: as §1

HT29 cells [1] = assay: DCFDA cellular ROS detection assay; settings: complexes at IC50, TBHP 20 µM
Experimental: (§2) DCFDA/H2DCFDA-cellular ROS Assay Kit (Abcam, Cambridge, MA, USA) was used to investigate the production of ROS in treated cells, as previously described. MDA−MB−231 or HT29 cells were seeded at a total concentration of 2500 cells/well in 96-well plates and incubated overnight. DMEM was then removed, and cells washed with 1× kit buffer, and stained with 25 µM 2′,7′-dichlorofluorescein diacetate (DCFH-DA) for 45 min. […] After that, the plates were scanned using the Glo-Max®-Multimode microplate reader (Promega Corporation, Alexandra, VIC, Australia) at an excitation/emission of 485/535 nm to detect fluorescence (relative fluorescence units, or RFU) at various time points. A positive control was generated using 20 µM tert-butyl hydroperoxide (TBHP), and the same procedure was applied with DCFDA. Three independent experiments in triplicates were implemented.

MDA−MB−231 cells = assay: DCFDA cellular ROS detection assay; settings: complexes at IC50, TBHP 20 µM
Experimental: as §2

HT29 cells [2] = assay: Western blot protein expression; settings: HT29, IC50, 72 h; for β-actin/GAPDH normalized to control (1): representative blot Figure S28A; for β-tubulin/GAPDH normalized to control (1): representative blot Figure S28B; for α-tubulin/GAPDH normalized to control (1): representative blot Figure S28C; for p-AKT/AKT/GAPDH normalized to control (1): representative blot Figure S29A; for p-ERK/ERK/GAPDH normalized to control (1): representative blot Figure S29B; for p53/GAPDH normalized to control (1): representative blot Figure S29C; for p21/GAPDH normalized to control (1): representative blot Figure S29D; for Bax/GAPDH normalized to control (1): representative blot Figure S30A; for Bcl2/GAPDH normalized to control (1): representative blot Figure S30B; for Cyt C/GAPDH normalized to control (1): representative blot Figure S30C; for Procaspase 8/GAPDH normalized to control (1): representative blot Figure S30D; for Cleaved BID/GAPDH normalized to control (1): representative blot Figure S30E; for Procaspase 9/GAPDH normalized to control (1): representative blot Figure S30F; for Cleaved caspase 3/GAPDH normalized to control (1) / Procaspase 3/GAPDH normalized to control (1): representative blot Figure S30G; for Cleaved PARP-1/GAPDH normalized to control (1) / PARP-1/GAPDH normalized to control (1): representative blot Figure S30H; for Beclin1/GAPDH normalized to control (1): representative blot Figure S31A; for ATG5/GAPDH normalized to control (1): representative blot Figure S31B; for ATG16L1/GAPDH normalized to control (1): representative blot Figure S31C; for ATG9A/GAPDH normalized to control (1): representative blot Figure S31D; for ATG4B/GAPDH normalized to control (1): representative blot Figure S31E; for LC3B/GAPDH normalized to control (1): representative blot Figure S31F
Experimental: Protein extraction was then performed on ice. Media were collected in Eppendorf tubes, and centrifuged at 500× g for 5 min at 4 °C. Meanwhile, 200 µL of lysis RIPA buffer, made up of 150 mM NaCl, 50 mM Tris-HCl, pH 8.0, 0.1% Triton X-100, 0.5% sodium deoxycholate, 0.1% SDS and 1 mM sodium orthovanadate, was added to each well, the cells were scrapped into the buffer, and added to the media-derived pellets. The tubes were placed on the shaker for 10 min at 4 °C. Then, cell extracts were centrifuged at 12,000× g for 15 min at 4 °C, and the supernatants (containing the proteins) were collected. The Bio-Rad-DC protein assay (Bio-Rad, Hercules, CA, USA) was used to assess protein content. Laemmli protein sample buffer (4×) with β-mercaptoethanol (9%) was used to prepare a final protein concentration of 20 µg. The samples were then heated at 100 °C for 5 min. A final volume of 30 µL of each sample was added per well and subjected to SDS-PAGE using Bolt 4–12% Bis-Tris gel (Thermo Fisher, Eugene, OR, USA) at 80 V for 30 min and then 120 V for 60 min with PageRuler™ Prestained Protein or SeeBlue Prestained Protein Ladder (Thermo Fisher, Eugene, OR, USA). Proteins were subsequently transferred to a 0.2 µm PVDF membrane (Amersham, Cytiya) using a semi-dry blot transfer. The membrane was then blocked in 5% BSA in TBST, for 1 h and probed overnight at 4 °C with primary antibodies against several cell proliferation, apoptotic, anti-apoptotic, microtubule and autophagic protein markers listed in Table S7 as per the manufacturer’s protocol. The primary antibody was then removed, washed three times for 10 min with TBST and then membranes were treated with either mouse or rabbit HRP-coupled secondary antibodies (1/3000) for 1 h and 30 min. Protein band detection was then performed using the chemiluminescence ECL kit (Thermo Fisher, Eugene, OR, USA). Blot images were obtained using the Odyssey® FC imaging system (LI-COR Biosciences, Lincoln, NE, USA) and band intensities were quantified relatively to glyceraldehyde-3-phosphate dehydrogenase (GAPDH) and then normalised each replicate gel to its corresponding no treatment control using the ImageJ v1.53t software (National Institutes of Health, Bethesda, MD, USA). Each marker results from the same experiment or parallel experiment where the gels were processed in parallel. Three independent experiments per marker were conducted.

SMILES	IC50 (MDA−MB−231 3D networks) [nM]	IC50 (HT29 spheroids) [nM]	IC50 (MDA−MB−231 spheroids) [nM]	ROS production (HT29 cells [1]; HT29, 24 h) [RFU]	ROS production (HT29 cells [1]; HT29, 48 h) [RFU]	ROS production (HT29 cells [1]; HT29, 72 h) [RFU]	ROS production (MDA−MB−231 cells; MDA−MB−231, 24 h) [RFU]	ROS production (MDA−MB−231 cells; MDA−MB−231, 48 h) [RFU]	ROS production (MDA−MB−231 cells; MDA−MB−231, 72 h) [RFU]	β-actin/GAPDH normalized to control (1) (HT29 cells [2])	β-tubulin/GAPDH normalized to control (1) (HT29 cells [2])	α-tubulin/GAPDH normalized to control (1) (HT29 cells [2])	p-AKT/AKT/GAPDH normalized to control (1) (HT29 cells [2])	p-ERK/ERK/GAPDH normalized to control (1) (HT29 cells [2])	p53/GAPDH normalized to control (1) (HT29 cells [2])	p21/GAPDH normalized to control (1) (HT29 cells [2])	Bax/GAPDH normalized to control (1) (HT29 cells [2])	Bcl2/GAPDH normalized to control (1) (HT29 cells [2])	Cyt C/GAPDH normalized to control (1) (HT29 cells [2])	Procaspase 8/GAPDH normalized to control (1) (HT29 cells [2])	further results
Cc1c(C)c2cccnc2c2ncccc12.N[C@H]1CCCC[C@@H]1N.O=[N+]([O-])[O-].O=[N+]([O-])[O-].[Pt+2] [Pt^II56MESS, [Pt(5,6-dimethyl-1,10-phenanthroline)(1S,2S-diaminocyclohexane)](NO3)2]	980 ± 1210	990 ± 1290	2490 ± 1980	321.56	433.67	453.89	338.49	418.08	446.09	0.4943	0.2182	0.04906	0.5359	0.8325	1.014	1.281	2.693	0.04576	6.706	0.2505	Cleaved BID/GAPDH normalized to control (1) (HT29 cells [2]): 2.821; Procaspase 9/GAPDH normalized to control (1) (HT29 cells [2]): 0.2717; Cleaved caspase 3/GAPDH normalized to control (1) (HT29 cells [2]): 5.099; Procaspase 3/GAPDH normalized to control (1) (HT29 cells [2]): 0.8936; Cleaved PARP-1/GAPDH normalized to control (1) (HT29 cells [2]): 7.064; PARP-1/GAPDH normalized to control (1) (HT29 cells [2]): 0.317; Beclin1/GAPDH normalized to control (1) (HT29 cells [2]): 5.632; ATG5/GAPDH normalized to control (1) (HT29 cells [2]): 0.6185; ATG16L1/GAPDH normalized to control (1) (HT29 cells [2]): 1.309; ATG9A/GAPDH normalized to control (1) (HT29 cells [2]): 1.516; ATG4B/GAPDH normalized to control (1) (HT29 cells [2]): 0.7106; LC3B/GAPDH normalized to control (1) (HT29 cells [2]): 1.044
N[C@H]1CCCC[C@@H]1N.O=[N+]([O-])[O-].O=[N+]([O-])[O-].[Pt+2].c1cnc2c(c1)ccc1cccnc12 [[Pt(1,10-phenanthroline)(1S,2S-diaminocyclohexane)](NO3)2]	2840 ± 1560	3930 ± 1460	5440 ± 1350	219.00	256.22	273.00	234.82	285.31	297.81	0.1267	0.232	0.09086	0.09219	0.9509	4.791	3.18	3.407	0.2872	1.692	0.1633	Cleaved BID/GAPDH normalized to control (1) (HT29 cells [2]): 1.611; Procaspase 9/GAPDH normalized to control (1) (HT29 cells [2]): 0.1981; Cleaved caspase 3/GAPDH normalized to control (1) (HT29 cells [2]): 17.46; Procaspase 3/GAPDH normalized to control (1) (HT29 cells [2]): 0.4874; Cleaved PARP-1/GAPDH normalized to control (1) (HT29 cells [2]): 8.496; PARP-1/GAPDH normalized to control (1) (HT29 cells [2]): 0.2612; Beclin1/GAPDH normalized to control (1) (HT29 cells [2]): 5.324; ATG5/GAPDH normalized to control (1) (HT29 cells [2]): 0.9428; ATG16L1/GAPDH normalized to control (1) (HT29 cells [2]): 3.844; ATG9A/GAPDH normalized to control (1) (HT29 cells [2]): 0.465; ATG4B/GAPDH normalized to control (1) (HT29 cells [2]): 0.6844; LC3B/GAPDH normalized to control (1) (HT29 cells [2]): 2.121
